Data reported in publication PMC11758394, “VCP downstream metabolite glycerol-3-phosphate (G3P) inhibits CD8^+T cells function in the HCC microenvironment” (Signal Transduction and Targeted Therapy, 2025).

Assays:
[1] = biological target: T1, region LCK(240-509AAs) (Homo sapiens, UniProt P06239); assay: SPR (Biacore 8K, protein on CM5 chip); also ITC; conditions: PBS; value not in text; binding of this fragment inferred because it contains 330-509
T1 construct: purified fragment 240-509 (kinase domain)

[2] = biological target: T2, LCK (Homo sapiens, UniProt P06239); assay: SPR (Biacore 8K, protein on CM5 chip); also ITC; format: binding; conditions: PBS; value not in text
T2 construct: purified full-length LCK
T2 sequence (P06239 whole entry): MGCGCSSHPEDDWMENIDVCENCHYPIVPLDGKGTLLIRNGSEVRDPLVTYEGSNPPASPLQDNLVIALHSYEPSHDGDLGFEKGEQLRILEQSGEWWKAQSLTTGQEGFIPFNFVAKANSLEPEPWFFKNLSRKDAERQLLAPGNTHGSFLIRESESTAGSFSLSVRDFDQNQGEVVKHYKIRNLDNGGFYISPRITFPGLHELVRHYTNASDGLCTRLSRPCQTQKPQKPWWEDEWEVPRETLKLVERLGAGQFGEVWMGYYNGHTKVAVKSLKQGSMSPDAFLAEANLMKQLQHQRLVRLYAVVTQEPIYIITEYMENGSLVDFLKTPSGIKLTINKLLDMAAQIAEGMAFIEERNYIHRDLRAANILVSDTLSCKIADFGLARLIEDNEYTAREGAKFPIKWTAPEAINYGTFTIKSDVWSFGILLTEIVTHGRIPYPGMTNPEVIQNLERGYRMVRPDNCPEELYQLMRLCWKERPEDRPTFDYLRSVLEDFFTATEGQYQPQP

T1 sequence (P06239 240-509): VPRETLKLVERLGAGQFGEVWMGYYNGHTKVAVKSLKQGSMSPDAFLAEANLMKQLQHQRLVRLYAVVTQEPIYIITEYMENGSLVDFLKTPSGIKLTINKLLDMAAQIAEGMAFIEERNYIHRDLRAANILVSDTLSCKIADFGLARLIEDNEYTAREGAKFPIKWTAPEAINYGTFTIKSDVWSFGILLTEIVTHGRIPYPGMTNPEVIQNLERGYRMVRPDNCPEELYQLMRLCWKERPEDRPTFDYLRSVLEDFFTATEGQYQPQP

SMILES: O=P(O)(O)OC[C@H](O)CO [G3P]
- Kd [1]: BIAcore measurement of the interaction between G3P and the purified region
- Kd [2]: we demonstrated the interaction of LCK and G3P using surface plasmon resonance (BIAcore) experiment
